Measured values taken from ChEMBL document CHEMBL1134689, “Novel C-terminus modifications of the Dmt-Tic motif: a new class of dipeptide analogues showing altered pharmacological profiles toward the opioid receptors” (J Med Chem, 2001).
The source made the active and inactive calls. No cut-off for these calls is given here.

Experiments:
[1] = target: T1, Kappa-type opioid receptor (Homo sapiens, UniProt P41145); experiment: Binding affinity at cloned human opioid receptor kappa 1
[2] = target: T2, Delta-type opioid receptor (Homo sapiens, UniProt P41143); experiment: Binding affinity at cloned human delta-opioid receptor
T2 sequence (P41143 whole entry): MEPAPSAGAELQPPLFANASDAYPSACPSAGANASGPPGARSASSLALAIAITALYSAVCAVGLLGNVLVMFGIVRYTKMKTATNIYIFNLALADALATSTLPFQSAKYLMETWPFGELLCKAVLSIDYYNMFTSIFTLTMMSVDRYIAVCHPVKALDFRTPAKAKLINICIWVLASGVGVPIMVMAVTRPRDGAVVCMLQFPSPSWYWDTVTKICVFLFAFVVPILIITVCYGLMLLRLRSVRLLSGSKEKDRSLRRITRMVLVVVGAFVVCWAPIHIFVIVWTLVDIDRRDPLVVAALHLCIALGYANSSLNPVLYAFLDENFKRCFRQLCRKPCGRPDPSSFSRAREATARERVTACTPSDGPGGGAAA

[3] = target: T2, Delta-type opioid receptor; experiment: Agonist potency using GTP-gamma [35S]- binding assay for delta-opioid receptor
[4] = target: T3, Mu-type opioid receptor (Homo sapiens, UniProt P35372); experiment: Binding affinity at cloned human mu-opioid receptor
T3 sequence (P35372 whole entry): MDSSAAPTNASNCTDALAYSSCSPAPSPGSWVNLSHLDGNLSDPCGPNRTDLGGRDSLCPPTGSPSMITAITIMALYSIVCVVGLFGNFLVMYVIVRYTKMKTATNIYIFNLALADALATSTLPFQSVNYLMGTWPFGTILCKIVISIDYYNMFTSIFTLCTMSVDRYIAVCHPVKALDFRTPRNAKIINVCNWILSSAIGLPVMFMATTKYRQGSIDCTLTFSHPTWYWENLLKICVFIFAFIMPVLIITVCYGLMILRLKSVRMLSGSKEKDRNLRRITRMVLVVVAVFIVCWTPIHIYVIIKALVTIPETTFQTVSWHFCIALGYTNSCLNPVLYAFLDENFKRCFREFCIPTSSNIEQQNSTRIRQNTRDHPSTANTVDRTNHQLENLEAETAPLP

[5] = target: T1, Kappa-type opioid receptor; experiment: Compound was tested for maximum stimulation of opioid receptor kappa 1 by GTP-gamma [35S]- binding assay
[6] = target: T2, Delta-type opioid receptor; experiment: Agonist potency using GTP-gamma [35S]- binding assay for delta-opioid receptor; Inactive
[7] = target: T3, Mu-type opioid receptor; experiment: Agonist potency using GTP-gamma [35S]- binding assay for mu-opioid receptor; Inactive
[8] = target: T1, Kappa-type opioid receptor; experiment: Agonist potency using GTP-gamma [35S]- binding assay for opioid receptor kappa 1
[9] = target: T3, Mu-type opioid receptor; experiment: Agonist potency using GTP-gamma [35S]- binding assay for mu-opioid receptor
[10] = target: T1, Kappa-type opioid receptor

T1 sequence (P41145 whole entry): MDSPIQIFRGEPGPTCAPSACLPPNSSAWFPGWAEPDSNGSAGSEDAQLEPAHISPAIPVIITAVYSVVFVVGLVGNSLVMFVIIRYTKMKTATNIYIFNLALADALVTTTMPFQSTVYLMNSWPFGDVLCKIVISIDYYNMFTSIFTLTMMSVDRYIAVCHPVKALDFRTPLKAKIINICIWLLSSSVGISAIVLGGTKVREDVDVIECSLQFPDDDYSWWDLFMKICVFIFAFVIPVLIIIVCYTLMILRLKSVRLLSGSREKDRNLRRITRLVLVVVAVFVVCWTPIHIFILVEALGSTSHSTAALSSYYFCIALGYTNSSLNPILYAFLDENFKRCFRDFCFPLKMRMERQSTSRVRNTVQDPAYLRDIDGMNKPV

| SMILES | IC50 [1] [nM] | IC50 [2] [nM] | EC50 [3] [nM] | IC50 [4] [nM] | Emax [5] [%] | NA [6] | NA [7] | EC50 [8] [nM] | EC50 [9] [nM] | NA [10] |
| --- | --- | --- | --- | --- | --- | --- | --- | --- | --- | --- |
| Cc1cc(O)cc(C)c1C[C@H](N)C(=O)N1Cc2ccccc2C[C@H]1CN=[N+]=[N-] | 1070 | 1.1 | 49.4 | 94.6 | – | – | – | – | – | – |
| Cc1cc(O)cc(C)c1C[C@H](N)C(=O)N1Cc2ccccc2C[C@H]1CNC(=O)NC12CC3CC(CC(C3)C1)C2 | 4.1 | 0.29 | – | 1.1 | 81.7 | inactive | inactive | 11.5 | – | – |
| Cc1cc(O)cc(C)c1C[C@H](N)C(=O)N1Cc2ccccc2C[C@H]1CO | > 10000 | 2 | – | 421 | – | inactive | inactive | – | – | – |
| Cc1cc(O)cc(C)c1C[C@H](N)C(=O)N1Cc2ccccc2C[C@H]1C | 764 | 1.7 | – | 3 | – | inactive | – | – | – | – |
| COC[C@@H]1Cc2ccccc2CN1C(=O)[C@@H](N)Cc1c(C)cc(O)cc1C | 2510 | 1.3 | – | 458 | – | inactive | – | – | – | – |
| Cc1cc(O)cc(C)c1C[C@H](N)C(=O)N1Cc2ccccc2C[C@H]1CNC(=O)C(C)(C)C | 394 | 0.79 | – | 25.3 | – | inactive | – | – | – | – |
| Cc1cc(O)cc(C)c1C[C@H](N)C(=O)N1Cc2ccccc2C[C@H]1CN | 521 | 4.9 | – | 113 | – | inactive | – | – | – | – |
| Cc1cc(O)cc(C)c1C[C@H](N)C(=O)N1Cc2ccccc2C[C@H]1C/N=C(/S)NC(C)(C)C | – | – | – | – | 99.6 | – | – | – | – | – |
| Cc1cc(O)cc(C)c1C[C@H](N)C(=O)N1Cc2ccccc2C[C@H]1CNC(=S)NC(C)(C)C | 2.8 | 0.22 | 0.32 | 36 | – | – | – | 24.3 | – | – |
| Cc1cc(O)cc(C)c1C[C@H](N)C(=O)N1Cc2ccccc2C[C@H]1CNC(=O)NC(C)(C)C | 1.3 | 0.17 | 0.65 | 61.8 | 96.9 | – | inactive | 6.9 | – | – |
| CCNC(=O)NC[C@@H]1Cc2ccccc2CN1C(=O)[C@@H](N)Cc1c(C)cc(O)cc1C | 321 | 0.99 | 5.7 | 169 | – | – | – | – | – | – |
| CC(=O)NC[C@@H]1Cc2ccccc2CN1C(=O)[C@@H](N)Cc1c(C)cc(O)cc1C | 9380 | 0.79 | 1.5 | 16.1 | – | – | – | – | – | – |
| Cc1cc(O)cc(C)c1C[C@H](N)C(=O)N1Cc2ccccc2C[C@H]1CNCC(C)(C)C | 1.5 | 0.99 | 2.8 | 1.3 | 102 | – | inactive | 1.4 | – | – |
| Cc1cc(O)cc(C)c1C[C@H](N)C(=O)N1Cc2ccccc2C[C@H]1CNC(=S)Nc1ccccc1 | 51.4 | 0.27 | 1.7 | 5.4 | – | – | – | – | – | – |
| Cc1cc(O)cc(C)c1C[C@H](N)C(=O)N1Cc2ccccc2C[C@H]1CNC(=O)c1ccccc1 | 307 | 0.24 | – | 0.98 | – | inactive | – | – | 109 | – |
| Cc1cc(O)cc(C)c1C[C@H](N)C(=O)N1Cc2ccccc2C[C@H]1COCc1ccccc1 | 64.6 | 0.33 | 0.97 | 12.5 | – | – | inactive | – | – | – |
| CC(C)[C@H](NC(=O)[C@H](CC(=O)O)NC(=O)[C@H](Cc1ccccc1)NC(=O)[C@@H](C)NC(=O)[C@@H](N)Cc1ccc(O)cc1)C(=O)N[C@H](C(=O)NCC(N)=O)C(C)C | – | – | – | – | – | – | – | – | – | inactive |
| C=CCOC[C@@H]1Cc2ccccc2CN1C(=O)[C@@H](N)Cc1c(C)cc(O)cc1C | 1450 | 0.98 | – | 108 | – | inactive | – | – | – | – |
| Cc1cc(O)cc(C)c1C[C@H](N)C(=O)N1Cc2ccccc2C[C@H]1CN=C(N)N | 345 | 3.2 | – | 12.8 | – | – | – | – | – | – |
| Cc1cc(O)cc(C)c1C[C@H](N)C(=O)N1Cc2ccccc2C[C@H]1CNC(=O)Nc1ccccc1 | 4.8 | 0.13 | 0.75 | 1 | 81.7 | – | – | 161 | 18.8 | – |
| Cc1cc(O)cc(C)c1C[C@H](N)C(=O)N1Cc2ccccc2C[C@H]1CNCc1ccccc1 | 1.5 | 0.41 | 0.92 | 0.65 | 100 | – | – | 6.8 | 37.1 | – |
| CC(=N)NC[C@@H]1Cc2ccccc2CN1C(=O)[C@@H](N)Cc1c(C)cc(O)cc1C | 996 | 9.9 | – | 33.2 | – | – | – | – | – | – |
| CC(=O)OC[C@@H]1Cc2ccccc2CN1C(=O)[C@@H](N)Cc1c(C)cc(O)cc1C | 3100 | 1.1 | – | 4.7 | – | inactive | inactive | – | – | – |
| Cc1cc(O)cc(C)c1C[C@H](N)C(=O)N1Cc2ccccc2C[C@H]1CN(C)C | 793 | 0.97 | – | 83.2 | – | inactive | – | – | – | – |
